Experiments:
Assay type in all cases: cell-based
[1] = test system: production of PGE2 in rat synovial membrane cells; experiment: inhibitory activity against the production of PGE2 in rat synovial membrane cells (Rat SVC)
Excerpt: (§1) These benzylidene derivatives of the formula III can be prepared in a conventional manner, for example, according to the following reaction scheme. [drawing 5] In the reaction scheme above, R is a as defined above and R^3 is hydroxy-protecting group in EP patent application No. 93308369.3 (Publication No. 595546) corresponding to U.S. patent application No. 08/142,146. Thus, hydroxy-protected 3,5-di-tert-butyl-4-hydroxybenzaldehyde 4 is reacted with γ-sultam derivative 2 under a conditions for aldol reaction to obtain an aldol addition compound 5. The compound […], when deprotected and dehydrated in the presence of an acid, gives the objective benzylidene derivative 3' as a mixture of stereoisomers in (E)- and (Z) forms, which is then subjected to resolution, when a given isomer is desired.

[2] = test system: production of LTB4 in rat celiac cells; experiment: inhibitory activity against the production of LTB4 in rat celiac cells (Rat PEC)
Excerpt: as §1

[3] = test system: production of IL-1 in THP-1 cells; experiment: inhibitory activity against the production of IL-1 under LPS stimulation in THP-1 cells; details: Homo sapiens, read-out: L-1 (THP-1) IC50
Excerpt: as §1

CN1CC/C(=C\c2cc(C(C)(C)C)c(O)c(C(C)(C)C)c2)S1(=O)=O [(E), (E)-5-(3,5-di-tert-Butyl-4-hydroxybenzylidene)-2-methyl-1,2-isothiazolidine-1,1-dioxide]
IC50 [1]: < 0.001 µM | IC50 [2]: 2.8 µM | IC50 [3]: 21 µM

CN1CC/C(=C/c2cc(C(C)(C)C)c(O)c(C(C)(C)C)c2)S1(=O)=O [(Z), 5-(3,5-di-tert-butyl-4-hydroxybenzylidene)-2-methyl-1,2-isothiazolidine-1,1-dioxide]
IC50 [1]: < 0.001 µM | IC50 [2]: 1.8 µM | IC50 [3]: 29 µM
